The target in one data set is ErbB2 WT (Homo sapiens (Human), UniProt P04626). The data set is described as follows: ErbB Enzyme Assay (HTRF KinEASE-TK), Assay 2. Type of data set: biochemical.
The next data set deals with EGFR (Homo sapiens (Human), UniProt P00533). The experiment in a line: ErbB Enzyme Assay (HTRF KinEASE-TK), Assay 3. Type of data set: biochemical. For orientation: In TR-FRET formats the signal depends on donor and acceptor labels being close together.
For data set [1], the target named is ErbB2 with Exon 20 YVMA insertion (HER2-YVMA) (Homo sapiens (Human), UniProt P04626, INS775YVMA). The experiment in a line: Cellular Phosphorylation Assay, Assay 4 (constitutive ErbB2 phosphorylation, NIH 3T3 cells). The class given is cell-based.
ErbB2 with Exon 20 YVMA insertion (HER2-YVMA), sequence (P04626 other isoform, or with tags, fused parts or gaps ins YVMA behind 775): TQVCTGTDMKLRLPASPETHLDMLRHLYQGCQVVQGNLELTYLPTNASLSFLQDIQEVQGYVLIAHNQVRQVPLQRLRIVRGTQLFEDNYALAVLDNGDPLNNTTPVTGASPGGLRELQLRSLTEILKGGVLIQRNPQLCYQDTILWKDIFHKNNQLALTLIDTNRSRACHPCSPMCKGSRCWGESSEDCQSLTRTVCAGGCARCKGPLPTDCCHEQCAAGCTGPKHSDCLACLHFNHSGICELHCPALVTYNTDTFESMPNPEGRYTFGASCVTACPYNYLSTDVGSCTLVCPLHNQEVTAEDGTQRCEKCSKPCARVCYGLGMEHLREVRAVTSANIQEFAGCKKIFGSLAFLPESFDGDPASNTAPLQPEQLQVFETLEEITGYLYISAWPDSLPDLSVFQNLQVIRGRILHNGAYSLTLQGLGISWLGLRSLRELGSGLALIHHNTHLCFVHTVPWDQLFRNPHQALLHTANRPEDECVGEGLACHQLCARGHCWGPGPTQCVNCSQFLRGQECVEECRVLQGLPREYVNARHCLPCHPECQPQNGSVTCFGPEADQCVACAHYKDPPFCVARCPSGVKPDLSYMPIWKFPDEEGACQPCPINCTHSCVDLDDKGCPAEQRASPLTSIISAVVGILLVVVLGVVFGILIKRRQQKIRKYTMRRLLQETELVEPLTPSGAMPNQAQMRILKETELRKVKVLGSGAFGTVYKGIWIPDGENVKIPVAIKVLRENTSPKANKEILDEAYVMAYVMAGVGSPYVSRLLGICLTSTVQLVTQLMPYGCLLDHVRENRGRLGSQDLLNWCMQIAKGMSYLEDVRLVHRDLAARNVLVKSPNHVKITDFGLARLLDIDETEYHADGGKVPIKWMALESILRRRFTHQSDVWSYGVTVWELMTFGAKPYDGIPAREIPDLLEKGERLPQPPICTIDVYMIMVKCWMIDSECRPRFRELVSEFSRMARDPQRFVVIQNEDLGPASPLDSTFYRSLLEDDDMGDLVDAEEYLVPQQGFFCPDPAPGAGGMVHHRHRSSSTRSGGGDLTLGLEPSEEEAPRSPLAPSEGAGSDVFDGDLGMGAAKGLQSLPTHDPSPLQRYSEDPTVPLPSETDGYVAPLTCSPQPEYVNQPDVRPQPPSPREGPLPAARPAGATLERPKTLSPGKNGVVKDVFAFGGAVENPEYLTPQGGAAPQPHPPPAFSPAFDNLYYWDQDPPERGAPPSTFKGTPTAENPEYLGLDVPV
For another data set, the target named is EGFR wild type (EGFR WT) (Homo sapiens (Human), UniProt P00533). The experiment in a line: Cellular Phosphorylation Assay, Assay 5 (EGF-stimulated EGFR phosphorylation, NIH 3T3 cells). Type of data set: cell-based.
EGFR wild type (EGFR WT), sequence (P00533 25-1210): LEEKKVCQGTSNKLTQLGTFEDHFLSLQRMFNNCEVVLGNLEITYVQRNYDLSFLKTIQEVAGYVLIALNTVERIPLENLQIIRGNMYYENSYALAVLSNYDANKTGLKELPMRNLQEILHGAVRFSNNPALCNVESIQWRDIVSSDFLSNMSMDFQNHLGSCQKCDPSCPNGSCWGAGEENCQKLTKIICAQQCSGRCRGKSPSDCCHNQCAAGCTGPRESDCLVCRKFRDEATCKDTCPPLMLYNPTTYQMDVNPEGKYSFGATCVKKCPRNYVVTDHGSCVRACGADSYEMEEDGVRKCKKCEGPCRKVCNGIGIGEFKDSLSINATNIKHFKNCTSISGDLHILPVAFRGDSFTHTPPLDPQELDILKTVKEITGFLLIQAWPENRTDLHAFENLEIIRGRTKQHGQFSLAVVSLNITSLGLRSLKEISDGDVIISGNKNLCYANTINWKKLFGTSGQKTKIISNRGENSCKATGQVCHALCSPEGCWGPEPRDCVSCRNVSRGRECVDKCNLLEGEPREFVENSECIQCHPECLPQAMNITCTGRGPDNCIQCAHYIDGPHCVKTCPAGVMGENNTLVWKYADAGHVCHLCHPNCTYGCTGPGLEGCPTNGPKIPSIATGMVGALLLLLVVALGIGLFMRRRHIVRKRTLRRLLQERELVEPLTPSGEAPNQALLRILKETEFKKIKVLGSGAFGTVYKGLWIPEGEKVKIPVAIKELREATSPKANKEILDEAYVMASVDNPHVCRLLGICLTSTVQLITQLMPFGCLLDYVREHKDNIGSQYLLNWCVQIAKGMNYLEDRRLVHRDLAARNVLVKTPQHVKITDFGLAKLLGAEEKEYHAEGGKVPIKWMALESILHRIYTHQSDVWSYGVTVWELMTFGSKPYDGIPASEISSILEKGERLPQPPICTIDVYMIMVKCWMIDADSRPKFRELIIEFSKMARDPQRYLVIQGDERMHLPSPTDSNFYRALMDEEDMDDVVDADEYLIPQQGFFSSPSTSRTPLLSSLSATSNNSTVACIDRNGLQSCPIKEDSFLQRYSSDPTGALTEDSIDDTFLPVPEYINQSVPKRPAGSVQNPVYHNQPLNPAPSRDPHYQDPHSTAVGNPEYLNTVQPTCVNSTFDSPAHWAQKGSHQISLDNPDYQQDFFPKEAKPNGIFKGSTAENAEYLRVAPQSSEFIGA
The target in a further data set is BCRP (Homo sapiens (Human), UniProt Q9UNQ0). The data set is described as follows: BCRP MDCKII efflux assay (Assay 7). The conditions noted are these: dog; efflux ratio Papp(B-A)/Papp(A-B), BCRP MDCKII cells; read-out: Assay 7 Pe Ratio. The class given is in vitro ADME. Here is the method: Assay conditions included with and without the BCRP-specific inhibitor, KO143, at a concentration of 0.3 μM to ascertain the contribution of BCRP to the efflux value of the test compound.
Final organic concentration in the assay was 1%.

The target of another data set is MDR1 (P-gp) (Homo sapiens (Human), UniProt P08183). The experiment in a line: in vitro. The conditions noted are these: pig, LLC-PK1.
MDR1 (P-gp), sequence (P08183 whole entry): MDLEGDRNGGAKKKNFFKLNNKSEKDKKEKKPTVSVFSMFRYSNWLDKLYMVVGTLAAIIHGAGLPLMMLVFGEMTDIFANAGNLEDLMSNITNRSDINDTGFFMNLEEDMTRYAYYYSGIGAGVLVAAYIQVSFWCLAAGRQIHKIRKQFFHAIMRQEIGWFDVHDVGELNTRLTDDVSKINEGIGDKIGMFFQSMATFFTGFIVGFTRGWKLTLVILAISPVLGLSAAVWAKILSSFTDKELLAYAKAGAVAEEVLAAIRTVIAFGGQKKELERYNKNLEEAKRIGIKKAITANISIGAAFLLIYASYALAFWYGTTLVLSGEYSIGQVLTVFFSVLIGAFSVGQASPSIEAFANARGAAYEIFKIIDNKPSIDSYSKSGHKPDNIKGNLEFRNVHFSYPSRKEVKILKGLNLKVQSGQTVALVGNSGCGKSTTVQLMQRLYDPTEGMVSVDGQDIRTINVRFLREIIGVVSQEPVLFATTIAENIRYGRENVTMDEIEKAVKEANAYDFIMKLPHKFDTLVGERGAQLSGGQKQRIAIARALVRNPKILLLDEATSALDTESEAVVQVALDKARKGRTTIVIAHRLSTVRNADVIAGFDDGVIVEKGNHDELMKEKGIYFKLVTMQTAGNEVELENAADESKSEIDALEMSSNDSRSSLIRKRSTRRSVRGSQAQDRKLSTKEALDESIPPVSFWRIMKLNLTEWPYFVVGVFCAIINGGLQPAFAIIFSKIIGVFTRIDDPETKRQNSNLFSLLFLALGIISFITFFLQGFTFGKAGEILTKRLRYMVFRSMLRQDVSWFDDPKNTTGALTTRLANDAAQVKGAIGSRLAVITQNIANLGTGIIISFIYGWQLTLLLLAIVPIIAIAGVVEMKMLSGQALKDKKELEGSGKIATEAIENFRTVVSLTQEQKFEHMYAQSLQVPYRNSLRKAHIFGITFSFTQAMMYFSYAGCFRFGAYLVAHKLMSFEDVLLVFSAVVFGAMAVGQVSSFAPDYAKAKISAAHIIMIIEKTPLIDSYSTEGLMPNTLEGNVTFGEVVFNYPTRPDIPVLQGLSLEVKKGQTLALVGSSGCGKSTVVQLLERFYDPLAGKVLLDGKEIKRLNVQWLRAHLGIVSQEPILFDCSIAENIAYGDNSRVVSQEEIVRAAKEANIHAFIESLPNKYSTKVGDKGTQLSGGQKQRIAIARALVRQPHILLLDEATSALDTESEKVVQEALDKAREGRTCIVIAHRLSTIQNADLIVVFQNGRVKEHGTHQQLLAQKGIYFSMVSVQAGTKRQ
The mark [2] stands for this setting: EGF-stimulated EGFR WT phosphorylation.
Setting [3] is: cellular ErbB2 YVMA phosphorylation.
The mark [4] stands for this setting: cellular EGFR WT phosphorylation, EGF-stimulated.

Results on 16 compounds are retold here after patent publication US12447153B2, “HER2 mutation inhibitors” (Array BioPharma Inc., priority 2021, dated 2025).

As a reminder, the IC50 is the concentration that inhibits the measured activity by half.

EGFR, sequence (P00533 25-1210): as the sequence (P00533 25-1210) above

Take `C=CC(=O)N1CCC(Oc2ccc3ncnc(Nc4ccc(Oc5ccn6ncnc6c5)c(C)c4)c3n2)CC1` [Example 1, 1-(4-((4-((4-([1,2,4]triazolo[1,5-a]pyridin-7-yloxy)-3-methylphenyl)amino)pyrido[3,2-d]pyrimidin-6-yl)oxy)piperidin-1-yl)prop-2-en-1-one]: the IC50 against ErbB2 WT (ErbB2 WT enzyme) worked out at 0.0336 µM; on EGFR (EGFR enzyme) it was 4.43 µM; in data set [1] (ErbB2 YVMA phosphorylation), 0.0125 µM; at EGFR wild type (EGFR WT) (setting [2]) it was 1.01 µM. Besides, the values for the efflux ratio at 2 h, 1 µM on BCRP and at MDR1 (P-gp) were 7.3 and 11.4, respectively.

Consider `CC#CC(=O)N1CC[C@@H]2C[C@H]1CN2c1ccc2ncnc(Nc3ccc(Oc4ccn5ncnc5c4)c(C)c3F)c2n1` [Example 176, 1-((1 S,5R)-6-(4-((4-([1,2,4]triazolo[1,5-a]pyridin-7-yloxy)-2-fluoro-3-methylphenyl)amino)pyrido[3,2-d]pyrimidin-6-yl)-2,6-diazabicyclo[3.2.1]octan-2-yl)but-2-yn-1-one], for which the IC50 turned out to be 0.0485 µM at ErbB2 WT (ErbB2 WT enzyme), 6.69 µM on EGFR (EGFR enzyme), 0.0244 µM in data set [1] (ErbB2 YVMA phosphorylation) and 3.62 µM at EGFR wild type (EGFR WT) (setting [2]). For the same compound, the efflux ratio at 2 h, 1 µM was determined as 2.4 on BCRP and 1 on MDR1 (P-gp).

`C=CC(=O)N1CCC(c2ccc3ncnc(Nc4ccc(Oc5ccc6c(c5)ncn6C)c(C)c4F)c3n2)CC1(C)C` (stereo not drawn) [Example 127, 1-(4-(4-((2-fluoro-3-methyl-4-((1-methyl-1H-benzo[d]imidazol-5-yl)oxy)phenyl)amino)pyrido[3,2-d]pyrimidin-6-yl)-2,2-dimethylpiperidin-1-yl)prop-2-en-1-one]: the half-maximal inhibitory concentration (IC50) at ErbB2 WT (ErbB2 WT enzyme) is 0.271 µM; on EGFR (EGFR enzyme), ≥ 10 µM; in data set [1] (ErbB2 YVMA phosphorylation), 0.0327 µM; against EGFR wild type (EGFR WT) (setting [2]), ≥ 5 µM. For the same compound, the efflux ratio at 2 h, 1 µM at BCRP is 1.6; at MDR1 (P-gp), 1.2.

With `C=CC(=O)N1CC(c2ccc3ncnc(Nc4ccc(Oc5ccc6c(c5)ncn6C)c(C)c4F)c3n2)CC1C` (stereo not drawn) [Example 124, 1-(4-(4-((2-fluoro-3-methyl-4-((1-methyl-1H-benzo[d]imidazol-5-yl)oxy)phenyl)amino)pyrido[3,2-d]pyrimidin-6-yl)-2-methylpyrrolidin-1-yl)prop-2-en-1-one], the concentration for half-maximal inhibition (IC50) was found to be 0.0299 µM against ErbB2 WT (ErbB2 WT enzyme), 3.9 µM at EGFR (EGFR enzyme), 0.0114 µM in data set [1] (ErbB2 YVMA phosphorylation) and 1.94 µM on EGFR wild type (EGFR WT) (setting [2]). For the same compound, the efflux ratio at 2 h, 1 µM at BCRP worked out at 5.2; at MDR1 (P-gp), 1.6.

Regarding `C=CC(=O)N1CC[C@@H]2C[C@H]1CN2c1ccc2ncnc(Nc3cc(C)c(Oc4ccn5ncnc5c4)cc3F)c2n1` [Example 332], the IC50 is 0.0109 µM against ErbB2 WT (ErbB2 WT enzyme assay), 0.196 µM against EGFR (EGFR enzyme assay), 0.0059 µM in data set [1] (setting [3]) and 0.341 µM at EGFR wild type (EGFR WT) (setting [4]). The efflux ratio at 2 h, 1 µM on BCRP turned out to be 3.2; at MDR1 (P-gp) it was 1.2.

`C=CC(=O)N1CCN(c2ccc3ncnc(Nc4cc(C)c(Oc5cnc6c(c5)ncn6C)cc4F)c3n2)C[C@@H]1C1CC1` [Example 355]: the IC50 against ErbB2 WT (ErbB2 WT enzyme assay) is 0.159 µM; at EGFR (EGFR enzyme assay), ≥ 10 µM; in data set [1] (setting [3]) it was 0.0285 µM; at EGFR wild type (EGFR WT) (setting [4]) it was ≥ 5 µM. Also, the efflux ratio at 2 h, 1 µM on BCRP amounted to 7.2; on MDR1 (P-gp), 1.5.

In the case of `C=CC(=O)N1CCC(Oc2nc3c(Nc4ccc(Oc5ccn6ncnc6c5)c(Cl)c4F)ncnc3cc2OC)CC1` [Example 39, 1-(4-((4-((4-([1,2,4]triazolo[1,5-a]pyridin-7-yloxy)-3-chloro-2-fluorophenyl)amino)-7-methoxypyrido[3,2-d]pyrimidin-6-yl)oxy)piperidin-1-yl)prop-2-en-1-one], the IC50 at ErbB2 WT (ErbB2 WT enzyme) came out at 0.0055 µM; at EGFR (EGFR enzyme) it was 0.0493 µM; in data set [1] (ErbB2 YVMA phosphorylation), 0.0053 µM; against EGFR wild type (EGFR WT) (setting [2]), 0.0468 µM. Moreover, the efflux ratio at 2 h, 1 µM amounted to 2.6 at BCRP and 2.3 on MDR1 (P-gp).

For the compound `C=CC(=O)N1C[C@H]2C[C@H](c3ccc4ncnc(Nc5ccc(Oc6ccc7c(c6)ncn7C)c(C)c5F)c4n3)C[C@H]2C1` [Example 138, 1-((3aR,5s,6aS)-5-(4-((2-fluoro-3-methyl-4-((1-methyl-1H-benzo[d]imidazol-5-yl)oxy)phenyl)amino)pyrido[3,2-d]pyrimidin-6-yl)hexahydrocyclopenta[c]pyrrol-2(1H)-yl)prop-2-en-1-one], the 50% inhibitory concentration (IC50) was 0.0221 µM against ErbB2 WT (ErbB2 WT enzyme), 4.17 µM on EGFR (EGFR enzyme), 0.0251 µM in data set [1] (ErbB2 YVMA phosphorylation) and ≥ 5 µM at EGFR wild type (EGFR WT) (setting [2]). Besides, the values for the efflux ratio at 2 h, 1 µM on BCRP and at MDR1 (P-gp) were 1.8 and 6.8, respectively.

Regarding `C=CC(=O)N1CCN(c2ccc3ncnc(Nc4cc(C)c(Oc5ccn6ncnc6c5)cc4F)c3n2)CC1(C)C` [Example 73, 1-(4-(4-((4-([1,2,4]triazolo[1,5-a]pyridin-7-yloxy)-2-fluoro-5-methylphenyl)amino)pyrido[3,2-d]pyrimidin-6-yl)-2,2-dimethylpiperazin-1-yl)prop-2-en-1-one], the 50% inhibitory concentration (IC50) came out at 0.0364 µM at ErbB2 WT (ErbB2 WT enzyme), 5.08 µM against EGFR (EGFR enzyme), 0.0289 µM in data set [1] (ErbB2 YVMA phosphorylation) and 2.42 µM on EGFR wild type (EGFR WT) (setting [2]). For the same compound, the efflux ratio at 2 h, 1 µM came out at 4.3 at BCRP and 1.1 on MDR1 (P-gp).

`C=CC(=O)N1CCC(Oc2ccc3ncnc(Nc4ccc(Oc5ccc6cn(C)nc6c5)c(C)c4)c3n2)CC1` [Example 3, 1-(4-((4-((3-methyl-4-((2-methyl-2H-indazol-6-yl)oxy)phenyl)amino)pyrido[3,2-d]pyrimidin-6-yl)oxy)piperidin-1-yl)prop-2-en-1-one]: the IC50 against ErbB2 WT (ErbB2 WT enzyme) is 0.26 µM; against EGFR (EGFR enzyme), ≥ 10 µM; in data set [1] (ErbB2 YVMA phosphorylation), 0.0606 µM; against EGFR wild type (EGFR WT) (setting [2]), ≥ 5 µM. The efflux ratio at 2 h, 1 µM is 1.5 at BCRP and 2 at MDR1 (P-gp).

As to `C=CC(=O)N1CCN(c2ccc3ncnc(Nc4ccc(Oc5cnc6c(c5)ncn6C)c(Cl)c4F)c3n2)CC1(C)C` [Example 239, 1-(4-(4-((3-chloro-2-fluoro-4-((3-methyl-3H-imidazo[4,5-b]pyridin-6-yl)oxy)phenyl)amino)pyrido[3,2-d]pyrimidin-6-yl)-2,2-dimethylpiperazin-1-yl)prop-2-en-1-one], the IC50 against ErbB2 WT (ErbB2 WT enzyme) was determined as 0.0367 µM; against EGFR (EGFR enzyme), 0.955 µM; in data set [1] (ErbB2 YVMA phosphorylation), 0.0243 µM; at EGFR wild type (EGFR WT) (setting [2]), 2.25 µM. The efflux ratio at 2 h, 1 µM at BCRP was 5.2; at MDR1 (P-gp), 1.8.

As for `C=CC(=O)N1CCN(c2ccc3ncnc(Nc4ccc(Oc5cnc6c(c5)ncn6C)c(Cl)c4)c3n2)CC1(C)C` [Example 249], the half-maximal inhibitory concentration (IC50) against ErbB2 WT (ErbB2 WT enzyme) is 0.0118 µM; against EGFR (EGFR enzyme), 1.33 µM; in data set [1] (ErbB2 YVMA phosphorylation), 0.0087 µM; against EGFR wild type (EGFR WT) (setting [2]) it was 2.05 µM. The efflux ratio at 2 h, 1 µM on BCRP is 5.9; on MDR1 (P-gp) it was 1.4.

`C=CC(=O)N1CC2CC(C1)N2c1ccc2ncnc(Nc3ccc(Oc4cnc5c(c4)ncn5C)c(C)c3F)c2n1` [Example 435]: the IC50 on ErbB2 WT (ErbB2 WT enzyme assay) was 0.315 µM; on EGFR (EGFR enzyme assay) it was 0.587 µM; in data set [1] (setting [3]), 0.016 µM; against EGFR wild type (EGFR WT) (setting [4]) it was 1.14 µM. For the same compound, the figures for the efflux ratio at 2 h, 1 µM at BCRP and on MDR1 (P-gp) were 2 and 1.5, respectively.

As to `C=CC(=O)N1C[C@@H]2C[C@H]1CN2c1ccc2ncnc(Nc3ccc(Oc4ccc5c(c4)ncn5C)c(C)c3F)c2n1` [Example 84, 1-((1S,4S)-5-(4-((2-fluoro-3-methyl-4-((1-methyl-1H-benzo[d]imidazol-5-yl)oxy)phenyl)amino)pyrido[3,2-d]pyrimidin-6-yl)-2,5-diazabicyclo[2.2.1]heptan-2-yl)prop-2-en-1-one], the IC50 at ErbB2 WT (ErbB2 WT enzyme) was 0.041 µM; at EGFR (EGFR enzyme) it was 0.221 µM; in data set [1] (ErbB2 YVMA phosphorylation), 0.0077 µM; on EGFR wild type (EGFR WT) (setting [2]), 0.254 µM. The efflux ratio at 2 h, 1 µM at BCRP is 3.8; on MDR1 (P-gp), 1.9.

In the case of `C=CC(=O)N1C[C@H]2C[C@@H]1CN(c1ccc3ncnc(Nc4cc(Cl)c(Oc5ccc6c(c5)ncn6C)cc4F)c3n1)C2` [Example 107, 1-((1S,5R)-3-(4-((5-chloro-2-fluoro-4-((1-methyl-1H-benzo[d]imidazol-5-yl)oxy)phenyl)amino)pyrido[3,2-d]pyrimidin-6-yl)-3,6-diazabicyclo[3.2.1]octan-6-yl)prop-2-en-1-one], the IC50 against ErbB2 WT (ErbB2 WT enzyme) was 0.237 µM; against EGFR (EGFR enzyme) it was ≥ 10 µM; in data set [1] (ErbB2 YVMA phosphorylation) it was 0.0178 µM; at EGFR wild type (EGFR WT) (setting [2]), ≥ 5 µM. Further, the efflux ratio at 2 h, 1 µM on BCRP came to 2.7; on MDR1 (P-gp), 1.6.

`C=CC(=O)N1CC[C@@H]2C[C@H]1CN2c1ccc2ncnc(Nc3ccc(Oc4ccn5ncnc5c4)c(C)c3F)c2n1` [Example 65, 1-((1S,5R)-6-(4-((4-([1,2,4]triazolo[1,5-a]pyridin-7-yloxy)-2-fluoro-3-methylphenyl)amino)pyrido[3,2-d]pyrimidin-6-yl)-2,6-diazabicyclo[3.2.1]octan-2-yl)prop-2-en-1-one]: the concentration for half-maximal inhibition (IC50) against ErbB2 WT (ErbB2 WT enzyme) came to 0.0174 µM; against EGFR (EGFR enzyme), 0.17 µM; in data set [1] (ErbB2 YVMA phosphorylation), 0.0042 µM; at EGFR wild type (EGFR WT) (setting [2]), 0.146 µM. Also, the efflux ratio at 2 h, 1 µM turned out to be 4 on BCRP and 1.4 at MDR1 (P-gp).
